Laboratory results taken from patent US10370404B2, “Protoescigenin derivative, process of its preparation, use of said compound and pharmaceutical composition comprising that compound” (Warszawski Uniwersytet Medyczny, priority 2015, dated 2019).

How the values were obtained:
[1] = system: male Wistar rats with surgically created side-to-side arterio-venous fistula between common femoral vessels; experiment: Rat arteriovenous fistula model of Parkes Weber syndrome: thigh circumference, muscle weight, femoral bone length; format: in vivo; conditions: sodium salt 10 mg/ml oral gavage, 4 weeks
Experimental: (§1) The below experiments were performed on male Wistar rats, at the age of 8-10 weeks, divided into two groups: the experimental group with surgically created side-to-side arterio-venous fistula between common femoral vessels (n=23) and a control group of un-operated animals (n=10). The experiment was approved by the local Bioethics Commission for experiments on animals, Warsaw 02-091, Żwirki i Wigury 61 (resolutions nr 11/2009 dated Jun. 23, 2009 and 46/12 dated Sep. 25, 2012).
Rats in experimental group were divided into two sub-groups, receiving no treatment (n=14) and receiving compound of the invention (n=9). Each animal was subjected to following surgical operations.
After induction of general anesthesia longitudinal skin incision just below inguinal ligament was performed. […] After application of micro-vascular clamps on common femoral vessels longitudinal 2 mm±0.1 mm long incision on antero-lateral side of the vein and antero-medial side of the artery were performed. Afterwards side-to-side anastomosis between common femoral vessels was performed to create arteriovenous fistula (non-absorbable monofilament suture 10/0). Subsequently micro-vascular clamps were removed and arteriovenous fistula patency was checked and haemostasis was achieved. […] The resultant vein lumen corresponded to approximately 80-90% of the initial vein lumen. Next, subcutaneous tissue and skin were sutured with absorbable suture.
The above procedure results in obtaining an animal model of Parkes Weber syndrome, described in the European patent application EP14001527. Hereinafter, these limbs are referred to as AVF limbs.
The operation of the right hind limb (control limb) included skin incision, common femoral vessels dissection, and subcutaneous and skin suture (absorbable suture). Hereinafter, these limbs are referred to as sham-operated limbs.
Animals were fed for 1 week, than surgical procedures were conducted. After the operation, animals were fed and treated with the compound of the invention.
(§2) The rats in sub-groups receiving compound of the invention were treated for 4 weeks with the compound of the invention (E-38) in form of sodium salt (10 mg/ml, 13.7 mM) administered by oral gavage.
(§3) After 4 weeks, rats were sacrificed and measurements were conducted. Non-operated rats were fed during the whole experiment. Blood samples for serum analysis were collected before the animals were sacrificed. […]
(§4) After euthanasia, measurements of thigh circumference limbs of animals of the experimental and control groups were performed. […] Femoral bones were excised and their length was measured with an electronic slide clipper.
(§5) The results were expressed as arithmetic means and standard errors of the mean (SEM). […]

[2] = system: male Wistar rats (un-operated control group); experiment: Un-operated control rats: thigh circumference, muscle weight, femoral bone length; format: in vivo, rat; conditions: sodium salt 10 mg/ml oral gavage, 4 weeks
Experimental: as §1
Rats in the control group were also divided into two sub-groups, receiving no treatment (n=6) and receiving the compound of the invention (n=4). These animals were not subjected to any surgical procedure.
as §2, §3, §4, §5

[3] = Biochemical analysis of the serum samples; format: in vivo, rat; conditions: control and experimental rats; sodium salt 10 mg/ml oral gavage, 4 weeks
Experimental: as §2
After 4 weeks, rats were sacrificed and measurements were conducted. Non-operated rats were fed during the whole experiment. Blood samples for serum analysis were collected before the animals were sacrificed. Biochemical analysis of the blood samples was conducted using biochemical analyzer Cobas 6000 (Roche, Hitachi).
In order to verify whether the administration of the compound of the invention results in any toxic effects influence in tested rats, the inventors conducted a set of basic biochemical tests of the serum isolated from the blood samples obtained from the control and experimental rats.
The conducted blood serum test included following parameters: glucose (GLUC), creatinin (CREA), urea (UREA), total protein (TP), uric acid (UA), amylase (AMYL), albumin (ALB), cholesterol (CHOL), triglicerides (TRIG), lipase (LIP), aspartate aminotransferase (AST), alanine aminotransferase (ALT), creatine kinase (CK).

[4] = system: Human Umbilical Vein Endothelial Cells (HUVEC); experiment: HUVEC cell migration assay; format: cell-based; conditions: 2 μM; rhTNF-α 10 ng/ml
Experimental: (§6) Human Umbilical Vein Endothelial Cells (HUVEC) were cultured in the EBM-2 (Lonza) supplemented with endothelial growth supplement mix (EGM-2 SingleQuot Kit Supplements and Growth Factors, Lonza) and 2% foetal bovine serum under standard cell culture condition (37° C., 5% CO2). Cells were harvested using Accutase (PAA Laboratories). All described experiments were performed with cells of passage four from at least three donors. The cells were treated with the compound of the invention at 2 μM for 24 h with or without an additional of 6 h stimulation of recombinant human TNF-α (rhTNF-α, 10 ng/ml, R&D Systems).
The rate of cell migration was measured with the Angiogenesis System: Endothelial Cell Migration (BD Biosciences) strictly according to the manufacturer's instructions.
The rate of cell migration was measured with Angiogenesis System: Endothelial Cell Migration (BD Biosciences). Briefly, 90% confluent HUVEC were incubated with the compound of the invention at 2 μM concentration in a complete culture medium for 24 h, then starved for 4 h in a medium containing 0.1% serum. Following seeing on migration inserts ([…] in 250 μl of media containing the compound of the invention) HUVEC were stimulated with rhTNF-α (10 ng/ml, R&D Systems). […]

[5] = system: Human Umbilical Vein Endothelial Cells (HUVEC); experiment: HUVEC in vitro vascular permeability assay; format: cell-based; conditions: 2 μM for 24 h; rhTNF-α for the last 6 h
Experimental: as §6
The In Vitro Vascular Permeability Assay Kit (Chemicon) was used to determine HUVEC monolayer permeability. All the steps of the procedure were performed according to the manufacturer's instructions.
The In Vitro Vascular Permeability Assay Kit (Chemicon) was used to determine HUVEC monolayer permeability following 24 h treatment of the compound of the invention at 2 μM concentrations. The effect of rhTNF-α (R&D Systems), which was added to cell culture for the last 6 h of the incubation period, was also determined. The subsequent steps of the procedure were performed according to the manufacturer's instructions.

[6] = left hind (AVF) limbs vs experimental group with no treatment

influence on measured parameters (thigh circumference, EDL and SOL muscle weight, femoral bone length) [2]: insignificant influence
Compound: CC1(C)C[C@H]2C3=CCC4[C@@]5(C)CC[C@H](O)[C@](C)(CO)C5CC[C@@]4(C)[C@]3(C)C[C@@H](O)[C@@]2(COCc2cn(-c3ccc(C(=O)O)cc3)nn2)[C@@H](O)[C@@H]1O (some centres unmarked) [compound of the invention]
effect on measured parameters (thigh circumference, EDL and SOL muscle weight, femoral bone length) ([1]; AVF rats): reduction of the measured parameters to a very significant extent | reduction of EDL muscle weight [1, 6]: approx. 59.2% | reduction of SOL muscle weight [1, 6]: approx. 63.6% | reduction of thigh circumference [1, 6]: approx. 12.5% | influence on blood serum parameters (GLUC, CREA, UREA, TP, UA, AMYL, ALB, CHOL, TRIG, LIP, AST, ALT, CK) [3]: no significant influence | TNF-α-induced cell migration [4]: reduced | TNF-α-induced endothelial cells permeability [5]: significantly decreased
